For 16 compounds, TGI and GI50 results are on record in PubChem BioAssay (NCI).

Test systems include MALME-3M melanoma; SNB-75 CNS; NCI/ADR-RES ovarian; SR leukemia; BT-549 breast; MDA-MB-231 breast; MDA-MB-435; SK-OV-3 ovarian.
Holding throughout (experiment): NCI tumour cell line growth inhibition, 48 h

Where “and” joins values, the source holds several entries; their conditions need not be identical. Equal entries are not always repeated.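 Assay format: 96-well plates, 48-hour exposure. The concentration for 50% growth inhibition is given as GI50. TGI: concentration producing complete growth inhibition.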

On to `CC(=O)Nc1ccc(CNc2cc(=O)[nH]c(=O)[nH]2)cc1`, for which the TGI in the test with MALME-3M melanoma, with SNB-75 CNS, in the test with NCI/ADR-RES ovarian, in the test with SR leukemia, in the test on BT-549 breast and in the test with MDA-MB-231 breast was more than 100 µM in each case. Also, the TGI in the test with MDA-MB-435 and in the test on SK-OV-3 ovarian was more than 100 µM each time.
In the case of `O=C1C2C=CC1C1C(=O)OC(=O)C21` (stereo not drawn), the TGI in the test on MALME-3M melanoma, in the test with SNB-75 CNS, with NCI/ADR-RES ovarian, in the test with SR leukemia, in the test with BT-549 breast and in the test with MDA-MB-231 breast was more than 100 µM in each case. The TGI in the test with MDA-MB-435 and with SK-OV-3 ovarian was more than 100 µM in each case.
For `O=C(CSc1nc(=O)[nH]c2nc[nH]c12)Nc1ccccc1`, the TGI in the test with MALME-3M melanoma, in the test on SNB-75 CNS, in the test with NCI/ADR-RES ovarian, in the test on SR leukemia, with BT-549 breast and in the test on MDA-MB-231 breast was more than 100 µM throughout. Besides, the TGI in the test with MDA-MB-435 and in the test on SK-OV-3 ovarian was more than 100 µM in each case.
As to `Cc1nn(C(=O)c2ccc(Cl)cc2)c2c1C(c1ccc([N+](=O)[O-])cc1)SC(N)=N2` (stereo not drawn), the TGI in the test with MALME-3M melanoma, in the test on SNB-75 CNS, with NCI/ADR-RES ovarian, with SR leukemia, in the test with BT-549 breast and in the test on MDA-MB-231 breast was more than 10 µM in each case. Further, the TGI in the test on MDA-MB-435 and in the test on SK-OV-3 ovarian was more than 10 µM in each case.
With `N#CCC(=O)Nn1c(CC#N)nnc1Cc1ccccc1`, the TGI in the test on MALME-3M melanoma, in the test with SNB-75 CNS, in the test with NCI/ADR-RES ovarian, in the test with SR leukemia, in the test with BT-549 breast and in the test on MDA-MB-231 breast was more than 100 µM throughout. This compound registered a TGI with MDA-MB-435 of more than 100 µM.
As for `O=C1OC(c2ccc(O)c(Cl)c2)(c2ccc(O)c(Cl)c2)c2ccc(Br)c3cccc1c23` (tested in a mixture with another compound), the TGI amounted to 39.3 µM in the test with MALME-3M melanoma; 37.8 µM with SNB-75 CNS; 32.5 µM with NCI/ADR-RES ovarian; 45.4 µM in the test on SR leukemia; 18.6 µM with BT-549 breast; 29.4 µM with MDA-MB-231 breast. Further, the TGI in the test on MDA-MB-435 came out at 34.3 µM; with SK-OV-3 ovarian, 32.2 µM.
On to `COc1cc([C@@H]2c3cc4c(cc3[C@@H](NCCNCCO)[C@H]3COC(=O)[C@H]23)OCO4)cc(OC)c1O`, for which the GI50 in the test on MALME-3M melanoma was 2720 nM and 1200 nM; with SR leukemia it was 303 nM. Moreover, the TGI in the test on MALME-3M melanoma is 24.4 µM and 10.8 µM; in the test on SNB-75 CNS it was 8.64 µM and 5.94 µM; in the test on NCI/ADR-RES ovarian it was more than 100 µM; in the test with BT-549 breast, 7.03 µM and 5.49 µM; with MDA-MB-231 breast, 21.6 µM; with MDA-MB-435 it was 35 µM and 31.6 µM. For the same compound, the TGI in the test with SK-OV-3 ovarian was 12.4 µM and 8.25 µM.
Regarding `NC1C/C(=N\O)c2c(I)sc(I)c21` (stereo not drawn), the TGI with MALME-3M melanoma is 30.1 µM; in the test with SNB-75 CNS it was 33.4 µM; in the test on NCI/ADR-RES ovarian, 43.1 µM; in the test on SR leukemia it was more than 100 µM; with BT-549 breast, 29.9 µM; with MDA-MB-231 breast it was 39.3 µM. Besides, the results for the TGI in the test on MDA-MB-435 and in the test with SK-OV-3 ovarian were 27.2 µM and 30.2 µM, respectively.
On to `CC(=O)Oc1ccc2c(c1)c1c(=O)oc(N(C)C)nc1n2Cc1ccccc1`, for which the TGI in the test with MALME-3M melanoma, in the test with SNB-75 CNS, in the test with NCI/ADR-RES ovarian, in the test with SR leukemia, with BT-549 breast and with MDA-MB-231 breast was more than 100 µM each time. Moreover, the TGI in the test on MDA-MB-435 and in the test with SK-OV-3 ovarian was more than 100 µM each time.
`O=C(c1cc(Cl)cc(Cl)c1)N(C(=S)OC12CC3CC(CC(C3)C1)C2)c1ccccc1`: the TGI with MALME-3M melanoma, in the test with SNB-75 CNS, with NCI/ADR-RES ovarian, in the test on SR leukemia, with BT-549 breast and in the test on MDA-MB-231 breast was more than 100 µM throughout. The TGI in the test on MDA-MB-435 and in the test on SK-OV-3 ovarian was more than 100 µM in each case.
As to `CC(=O)OCC1OC(n2c(N)c(C#N)c(-c3ccccc3)c(C#N)c2=S)C(OC(C)=O)C(OC(C)=O)C1OC(C)=O` (stereo not drawn), the TGI in the test with MALME-3M melanoma was more than 100 µM; with SNB-75 CNS, 30 µM; in the test on NCI/ADR-RES ovarian it was more than 100 µM; in the test on SR leukemia, more than 100 µM; in the test with BT-549 breast it was more than 100 µM; with MDA-MB-231 breast, more than 100 µM. Further, the TGI in the test with MDA-MB-435 and in the test with SK-OV-3 ovarian was more than 100 µM throughout.
As for `O=C1c2cc3ccccc3cc2C2(c3ccc(Cl)cc3)N[C@H]3CCCC[C@@H]3N12` (stereo partly drawn), the TGI was determined as 36.8 µM in the test with MALME-3M melanoma; 37.5 µM in the test on SNB-75 CNS; 41.6 µM with NCI/ADR-RES ovarian; 48.7 µM in the test with SR leukemia; 36.9 µM in the test with BT-549 breast; 36.2 µM with MDA-MB-231 breast. Also, the TGI in the test on MDA-MB-435 came out at 93 µM; in the test with SK-OV-3 ovarian, 31.9 µM.
Consider `COC(=O)C1=Nc2c(C)nn(-c3ccccc3)c2N=C(c2ccc(C)cc2)C1`, for which the TGI in the test with MALME-3M melanoma, in the test on SNB-75 CNS, in the test on NCI/ADR-RES ovarian, with SR leukemia, in the test with BT-549 breast and in the test on MDA-MB-231 breast was more than 10 µM throughout. Besides, the TGI in the test on MDA-MB-435 and in the test on SK-OV-3 ovarian was more than 10 µM in each case.
For the compound `O=C(CN1CCN(C(=O)OCc2ccccc2)CCN(CC(=O)N2CCCCC2)CCN(C(=O)OCc2ccccc2)CC1)N1CCCCC1`, the TGI was 23.5 µM in the test on MALME-3M melanoma; 16.5 µM in the test on SNB-75 CNS; 32.5 µM in the test with NCI/ADR-RES ovarian; 11.8 µM in the test with SR leukemia; more than 50.5 µM in the test with BT-549 breast; 33.7 µM with MDA-MB-231 breast. For the same compound, the TGI in the test on MDA-MB-435 is 31.2 µM; in the test with SK-OV-3 ovarian, more than 52.7 µM.
With `CC1(c2ccc(Cl)cc2)CC(c2ccc(Cl)cc2)=C(C#N)C(=C(C#N)C#N)N1` (stereo not drawn), the TGI is 32.3 µM with MALME-3M melanoma; 34.7 µM with SNB-75 CNS; 46.5 µM in the test on NCI/ADR-RES ovarian; more than 100 µM in the test with SR leukemia; 42.2 µM in the test on BT-549 breast; 55.8 µM in the test on MDA-MB-231 breast. Moreover, the TGI with MDA-MB-435 was 34.7 µM; with SK-OV-3 ovarian, 31.2 µM.
`CCc1n[nH]c(=O)n1N1C(=O)C2CC=CCC2C1=O` (stereo not drawn): the TGI in the test with MALME-3M melanoma, in the test on SNB-75 CNS, with NCI/ADR-RES ovarian, in the test with SR leukemia, with BT-549 breast and with MDA-MB-231 breast was more than 100 µM in each case. Also, the TGI with MDA-MB-435 and with SK-OV-3 ovarian was more than 100 µM in each case.
